The results in this text go back to article PMC5936909, “Identification of potent chromone embedded [1,2,3]-triazoles as novel anti-tubercular agents” (Royal Society Open Science, 2018).

Like-named read-outs stand apart in the source and are kept apart here.

Data set [1] has as its system Mycobacterium tuberculosis H37Rv (ATCC27294). Description: in vitro anti-tubercular activity, MABA assay. The class given is cell-based.
The subject of another data set is RAW 264.7 cells. Description: in vitro cytotoxicity, MTT assay. To be noted: at 50 µg ml^−1, RAW 264.7 cells.
[2] abbreviates: M. tuberculosis H37Rv, MABA, lowest concentration with complete inhibition of growth.
[3] abbreviates: Mycobacterium tuberculosis, M. tuberculosis H37Rv, MABA, lowest concentration with complete inhibition of growth, read-out: MIC.
[4] abbreviates: Mycobacterium tuberculosis, supplement page S73 correlation table, read-out: MIC.
[5] abbreviates: Mycobacterium tuberculosis, supplement page S72, standard drugs, read-out: MIC.

For the molecule “2-((1H-1,2,3-triazol-1-yl)methyl)-4H-chromen-4-one [6t]”, the minimal inhibitory concentration (MIC) in data set [1] (setting [2]) stood at 50 µg/mL. Moreover, the “cytotoxicity (percentage inhibition of cells)” value with RAW 264.7 cells is 30.12%.

“3-((4-(4-propylphenyl)-1H-1,2,3-triazol-1-yl)methyl)-4H-chromen-4-one [6d]” yielded an MIC in data set [1] (setting [2]) of 50 µg/mL. In addition, the “cytotoxicity (percentage inhibition of cells)” value with RAW 264.7 cells came out at 20.60%.

`O=c1c(Cn2cc(-c3ccccc3)nn2)coc2ccccc12` [6a, 3-((4-phenyl-1H-1,2,3-triazol-1-yl)methyl)-4H-chromen-4-one]: the melting point fell in the range of 154 to 155 °C. In addition, the minimum inhibitory concentration (MIC) in data set [1] (setting [3]) worked out at 25 µg/mL. Besides, in the data set on RAW 264.7 cells, the “cytotoxicity (percentage inhibition of cells)” value amounted to 12.86%.

Take `Cc1ccc(-c2cn(Cc3coc4ccccc4c3=O)nn2)cc1` [6b, 3-((4-(p-tolyl)-1H-1,2,3-triazol-1-yl)methyl)-4H-chromen-4-one]: the melting point is 170 to 172 °C. The minimum inhibitory concentration (MIC) in data set [1] (setting [3]) turned out to be 25 µg/mL. In addition, the “cytotoxicity (percentage inhibition of cells)” value with RAW 264.7 cells was found to be 26.82%.

Regarding `CCc1ccc(-c2cn(Cc3coc4ccccc4c3=O)nn2)cc1` [6c, 3-((4-(4-ethylphenyl)-1H-1,2,3-triazol-1-yl)methyl)-4H-chromen-4-one], the minimal inhibitory concentration (MIC) in data set [1] (setting [3]) was found to be 25 µg/mL. Also, the “cytotoxicity (percentage inhibition of cells)” value with RAW 264.7 cells is 16.12%.

The molecule `CCCCCc1ccc(-c2cn(Cc3coc4ccccc4c3=O)nn2)cc1` [6e, 3-((4-(4-pentylphenyl)-1H-1,2,3-triazol-1-yl)methyl)-4H-chromen-4-one] gave a melting point of 147 to 148 °C. In data set [1] (setting [3]), the minimum inhibitory concentration (MIC) came out at 25 µg/mL. Moreover, the “cytotoxicity (percentage inhibition of cells)” value with RAW 264.7 cells was 20.12%.

`CC(C)(C)c1ccc(-c2cn(Cc3coc4ccccc4c3=O)nn2)cc1` [6f, 3-((4-(4-(tert-butyl)phenyl)-1H-1,2,3-triazol-1-yl)methyl)-4H-chromen-4-one] had a melting point of 218 to 219 °C. For the same molecule, the MIC in data set [1] (setting [2]) was found to be 3.125 µg/mL. The MIC in data set [1] (setting [4]) was found to be 3.12 µg/mL. Besides, the “cytotoxicity (percentage inhibition of cells)” value with RAW 264.7 cells was 20.12%.

In turn, `COc1ccc(-c2cn(Cc3coc4ccccc4c3=O)nn2)cc1` [6g, 3-((4-(4-methoxyphenyl)-1H-1,2,3-triazol-1-yl)methyl)-4H-chromen-4-one] yielded a melting point of 170 to 171 °C. Also, in data set [1] (setting [2]), the MIC worked out at 6.25 µg/mL. Also, the minimal inhibitory concentration (MIC) in data set [1] (setting [4]) came out at 6.25 µg/mL. In addition, the “cytotoxicity (percentage inhibition of cells)” value with RAW 264.7 cells is given as 28.40%.

For `CCCCCOc1ccc(-c2cn(Cc3coc4ccccc4c3=O)nn2)cc1` [6h, 3-((4-(4-(pentyloxy)phenyl)-1H-1,2,3-triazol-1-yl)methyl)-4H-chromen-4-one], the melting point lay in the range of 154 to 155 °C. Besides, the MIC in data set [1] (setting [2]) stood at 3.125 µg/mL. Also, the minimum inhibitory concentration (MIC) in data set [1] (setting [4]) turned out to be 3.12 µg/mL. Further, the “cytotoxicity (percentage inhibition of cells)” value with RAW 264.7 cells was found to be 18.68%.

`Cc1cccc(-c2cn(Cc3coc4ccccc4c3=O)nn2)c1` [6i, 3-((4-(m-tolyl)-1H-1,2,3-triazol-1-yl)methyl)-4H-chromen-4-one] yielded a melting point of 124 to 125 °C. Moreover, the minimal inhibitory concentration (MIC) in data set [1] (setting [3]) turned out to be 25 µg/mL. For the same molecule, the “cytotoxicity (percentage inhibition of cells)” value in the data set on RAW 264.7 cells is 26.82%.

In turn, `COc1ccc(-c2cn(Cc3coc4ccccc4c3=O)nn2)c(C)c1` [6j, 3-((4-(4-methoxy-2-methylphenyl)-1H-1,2,3-triazol-1-yl)methyl)-4H-chromen-4-one] registered a melting point of 172 to 173 °C. Also, the MIC in data set [1] (setting [3]) was determined as 50 µg/mL. Besides, in the data set on RAW 264.7 cells, the “cytotoxicity (percentage inhibition of cells)” value is recorded as 30.34%.

Turning to `O=c1c(Cn2cc(-c3cccc4ccccc34)nn2)coc2ccccc12` [6k, 3-((4-(naphthalen-1-yl)-1H-1,2,3-triazol-1-yl)methyl)-4H-chromen-4-one], the melting point was 154 to 155 °C. The minimal inhibitory concentration (MIC) in data set [1] (setting [3]) came out at 50 µg/mL. Also, in the data set with RAW 264.7 cells, the “cytotoxicity (percentage inhibition of cells)” value was 26.12%.

`O=c1c(Cn2cc(-c3ccccn3)nn2)coc2ccccc12` [6l, 3-((4-(pyridin-2-yl)-1H-1,2,3-triazol-1-yl)methyl)-4H-chromen-4-one] showed a melting point of 175 to 176 °C. Further, the minimal inhibitory concentration (MIC) in data set [1] (setting [3]) came to 50 µg/mL. For the same molecule, the “cytotoxicity (percentage inhibition of cells)” value in the data set with RAW 264.7 cells turned out to be 30.60%.

In turn, `CCCCc1cn(Cc2coc3ccccc3c2=O)nn1` [6m, 3-((4-butyl-1H-1,2,3-triazol-1-yl)methyl)-4H-chromen-4-one] displayed a melting point of 87 to 88 °C. Also, the minimum inhibitory concentration (MIC) in data set [1] (setting [2]) was 6.25 µg/mL. In data set [1] (setting [4]), the minimum inhibitory concentration (MIC) was 6.25 µg/mL. The “cytotoxicity (percentage inhibition of cells)” value with RAW 264.7 cells came to 36.82%.

`CCCCCCc1cn(Cc2coc3ccccc3c2=O)nn1` [6n, 3-((4-hexyl-1H-1,2,3-triazol-1-yl)methyl)-4H-chromen-4-one] gave a melting point of 84 to 85 °C. The minimal inhibitory concentration (MIC) in data set [1] (setting [3]) came out at 50 µg/mL. Further, the “cytotoxicity (percentage inhibition of cells)” value with RAW 264.7 cells was determined as 23.74%.

Regarding `O=c1c(Cn2cc(C3CCCC3)nn2)coc2ccccc12` [6o, 3-((4-cyclopentyl-1H-1,2,3-triazol-1-yl)methyl)-4H-chromen-4-one], the melting point was 157 to 158 °C. Moreover, the minimum inhibitory concentration (MIC) in data set [1] (setting [2]) amounted to 3.125 µg/mL. In addition, in data set [1] (setting [4]), the minimal inhibitory concentration (MIC) stood at 3.12 µg/mL. In the data set on RAW 264.7 cells, the “cytotoxicity (percentage inhibition of cells)” value came to 18.42%.

Regarding `O=c1c(Cn2cc(C3CCCCC3)nn2)coc2ccccc12` [6p, 3-((4-cyclohexyl-1H-1,2,3-triazol-1-yl)methyl)-4H-chromen-4-one], the melting point was in the range of 145 to 146 °C. In data set [1] (setting [2]), this molecule had an MIC of 12.5 µg/mL. For the same molecule, the MIC in data set [1] (setting [4]) is 12.5 µg/mL. The “cytotoxicity (percentage inhibition of cells)” value with RAW 264.7 cells was 20.12%.

`O=c1c(Cn2cc(CC3CCCCC3)nn2)coc2ccccc12` [6q, 3-((4-(cyclohexylmethyl)-1H-1,2,3-triazol-1-yl)methyl)-4H-chromen-4-one] displayed a melting point of 133 to 134 °C. For the same molecule, the MIC in data set [1] (setting [3]) came to 25 µg/mL. Further, the “cytotoxicity (percentage inhibition of cells)” value in the data set on RAW 264.7 cells came to 28.62%.

`O=c1c(Cn2cc(C3(O)c4ccccc4-c4ccccc43)nn2)coc2ccccc12` [6r, 3-((4-(9-hydroxy-9H-fluoren-9-yl)-1H-1,2,3-triazol-1-yl)methyl)-4H-chromen-4-one] showed a melting point of 239 to 240 °C. Also, the MIC in data set [1] (setting [3]) came out at 50 µg/mL. Also, the “cytotoxicity (percentage inhibition of cells)” value with RAW 264.7 cells was found to be 30.60%.

`O=c1c(Cn2cc(CCCCCCCCCCCCCCCO)nn2)coc2ccccc12` [6s, 3-((4-(15-hydroxypentadecyl)-1H-1,2,3-triazol-1-yl)methyl)-4H-chromen-4-one] returned a melting point of 123 to 124 °C. In data set [1] (setting [2]), this molecule returned a minimal inhibitory concentration (MIC) of 1.56 µg/mL. The MIC in data set [1] (setting [4]) turned out to be 1.56 µg/mL. Besides, the “times more active than the standard drug ethambutol” value in data set [1] (ratio of MIC values) is listed as 4.8 times. Further, the “cytotoxicity (percentage inhibition of cells)” value in the data set on RAW 264.7 cells stood at 24.68%.

Regarding `CO[C@H]1/C=C/O[C@@]2(C)Oc3c(C)c(O)c4c(O)c(c(/C=N/N5CCN(C)CC5)c(O)c4c3C2=O)NC(=O)/C(C)=C\C=C\[C@H](C)[C@H](O)[C@@H](C)[C@@H](O)[C@@H](C)[C@H](OC(C)=O)[C@@H]1C` [Rifampicin, rifampicin, reference compound], the minimal inhibitory concentration (MIC) worked out at 0.24 µg/mL in data set [1] (setting [3]) and 0.24 µM in data set [1] (setting [5]).

In the case of `CC[C@@H](CO)NCCN[C@@H](CC)CO` [ethambutol, reference compound], the MIC in data set [1] (setting [3]) came to 7.64 µg/mL; in data set [1] (setting [5]), 7.64 µM.

As usually defined, the MIC is the least concentration at which growth counts as inhibited. In general, melting point refers to the temperature, or range, at which the solid turns liquid.
